Test results taken from patent US20260356957A1, “METHODS FOR TREATMENT OF NON-SMALL CELL LUNG CANCER (NSCLC)” (Janssen Biotech, Inc., priority 2023, published 2026).

Assay: MARIPOSA Phase 3, adverse events
Type: in vivo, human
Description: • 1. […] Incidence and Severity of Adverse Events (AEs) [Time Frame: Up to approximately 60 months]. Incidence and severity of treatment emergent adverse events (TEAEs) will be reported. Any adverse event occurring at or after the initial administration of study treatment through the day of last dose plus 30 days, or until the start of subsequent anticancer therapy (if earlier), is considered to be treatment emergent. • 8. Number of Participants with Clinical Laboratory Abnormalities [Time Frame: Up to approximately 60 months]. Number of participants with clinical laboratory abnormalities (serum chemistry, hematology, blood coagulation, and urine samples) will be reported. • 9. Number of Participants with Vital Signs Abnormalities [Time Frame: Up to approximately 60 months]. Number of participants with vital signs abnormalities (temperature, heart rate, respiratory rate, oxygen saturation, blood pressure) will be reported. • 10. Number of Participants with Physical Examination Abnormalities [Time Frame: Up to approximately 60 months]. Number of participants with physical examination abnormalities will be reported. • 11. […] The NSCLC-SAQ contains 7 items that assess cough, pain, dyspnea, fatigue, and poor appetite over a 7-day recall period. Each multi-item scale and individual item will be summarized using count and percent by visit. • 15. […] EORTC-QLQ-C30 is a core 30-item questionnaire for evaluating the health-related quality of life (HRQOL) of participants participating in cancer clinical studies. • 16.

[1] = TEAE leading to dose reductions of any study agent
[2] = TEAE leading to interruptions of any study agent
[3] = adverse events, listed as osimertinib
[4] = pneumonitis and interstitial lung disease

C=CC(=O)Nc1cc(Nc2nccc(-c3cn(C)c4ccccc34)n2)c(OC)cc1N(C)CCN(C)C [Osimertinib]
Skin lesion [1]: 0 no. (%) | Stomatitis [1]: 0 no. (%) | Asthenia [2]: 1 (0.2) no. (%) | COVID-19 [2]: 36 (8) no. (%) | Deep vein thrombosis [2]: 2 (0.5) no. (%) | Dermatitis acneiform [2]: 1 (0.2) no. (%) | Diarrhea [2]: 6 (1) no. (%) | Hypoalbuminemia [2]: 0 no. (%) | Increased alanine aminotransferase [2]: 12 (3) no. (%) | Increased aspartate aminotransferase [2]: 11 (3) no. (%) | Increased γ-glutamyltransferase [2]: 5 (1) no. (%) | Paronychia [2]: 4 (1) no. (%) | Peripheral edema [2]: 0 no. (%) | Pneumonia [2]: 18 (4) no. (%) | Pulmonary embolism [2]: 9 (2) no. (%) | Rash [2]: 4 (1) no. (%) | Stomatitis [2]: 4 (1) no. (%) | Any venous thromboembolism event leading to death (VTE): 2 (0.5) no. (%) | Any venous thromboembolism event leading to discontinuation of any agent (VTE): 2 (0.5) no. (%) | Any venous thromboembolism event, Grade 1 (VTE): 0 no. (%) | Any venous thromboembolism event, Grade 2 (VTE): 24 (6) no. (%) | Any venous thromboembolism event, Grade 3 (VTE): 12 (3) no. (%) | Any venous thromboembolism event, Grade 4 (VTE): 1 (0.2) no. (%) | Any venous thromboembolism event, Grade 5 (VTE): 2 (0.5) no. (%) | Axillary vein thrombosis (VTE event): 0 no. (%) | Deep vein thrombosis (VTE event): 11 (3) no. (%) | Embolism (VTE event): 3 (1) no. (%) | Embolism venous (VTE event): 1 (0.2) no. (%) | Jugular vein thrombosis (VTE event): 0 no. (%) | Pelvic venous thrombosis (VTE event): 1 (0.2) no. (%) | Portal vein thrombosis (VTE event): 0 no. (%) | Post thrombotic syndrome (VTE event): 0 no. (%) | Pulmonary embolism (VTE event): 20 (5) no. (%) | Pulmonary infarction (VTE event): 0 no. (%) | Pulmonary thrombosis (VTE event): 1 (0.2) no. (%) | Sigmoid sinus thrombosis (VTE event): 0 no. (%) | Superficial vein thrombosis (VTE event): 0 no. (%) | Superior sagittal sinus thrombosis (VTE event): 0 no. (%) | Superior vena cava syndrome (VTE event): 1 (0.2) no. (%) | Thrombophlebitis (VTE event): 4 (1) no. (%) | Thrombosis (VTE event): 1 (0.2) no. (%) | Vena cava thrombosis (VTE event): 0 no. (%) | Venous thrombosis (VTE event): 1 (0.2) no. (%) | Venous thrombosis limb (VTE event): 1 (0.2) no. (%) | Any event leading to discontinuations of any study agent (adverse events): 58 (14) no. (%) | Any event leading to interruptions of any study agent (adverse events): 165 (39) no. (%) | Any event leading to reductions of any study agent (adverse events): 23 (5) no. (%) | Any event resulting in death (adverse events): 31 (7) no. (%) | Any serious event (adverse events): 143 (33) no. (%) | Grade ≥3 (adverse events): 183 (43) no. (%) | Any event (adverse events, safety population): 425 (99) no. (%) | Any event leading to discontinuations of any study agent [3]: 58 (14%) no. (%) | Any event leading to interruptions of any study agent [3]: 165 (39%) no. (%) | Any event leading to reductions of any study agent [3]: 23 (5%) no. (%) | Any event resulting in death [3]: 31 (7%) no. (%) | Interstitial lung disease/pneumonitis (any grade, both groups): 3% | Interstitial lung disease/pneumonitis, grade 3 or higher (both groups): 1% | Adverse events of grade 3 or higher (in vivo): 43% | Discontinuations of all agents due to treatment-related adverse events (in vivo): 3% | Receiving anticoagulation at time of first VTE (in vivo): 0% | Serious adverse events (in vivo): 33% | Venous thromboembolic (VTE) events (in vivo): 9% | VTE events in the first 4 months of treatment (of VTE events): 33% | First bleeding event while on anticoagulants (on anticoagulants): 14 (3) no. (%) | Recurrent venous thromboembolism event while on anticoagulants (on anticoagulants): 0 no. (%) | Anticoagulation concomitant use (on study): 81 (19) no. (%) | Interstitial lung disease, Duration of event, median no. of days (range) [4]: 20 (1-189) days | Interstitial lung disease, No. of days to first onset, median (range) [4]: 115 (9-512) days | Interstitial lung disease, No. of patients (%) [4]: 13 (3) no. (%) | Alanine aminotransferase increased (serious TEAE): 6 (1) no. (%) | COVID-19 (serious TEAE): 10 (2) no. (%) | Cardiac failure (serious TEAE): 5 (1) no. (%) | Deep vein thrombosis (serious TEAE): 2 (0.5) no. (%) | Dyspnea (serious TEAE): 11 (3) no. (%) | Hypoalbuminemia (serious TEAE): 0 no. (%) | Hyponatremia (serious TEAE): 4 (1) no. (%) | Infusion related reaction (serious TEAE): 0 no. (%) | Interstitial lung disease (serious TEAE): 5 (1) no. (%) | Pericardial effusion (serious TEAE): 5 (1) no. (%) | Pleural effusion (serious TEAE): 17 (4) no. (%) | Pneumonia (serious TEAE): 21 (5) no. (%) | Pneumonitis (serious TEAE): 8 (2) no. (%) | Pulmonary embolism (serious TEAE): 10 (2) no. (%) | Rash (serious TEAE): 0 no. (%) | Respiratory failure (serious TEAE): 2 (0.5) no. (%) | Any event (treatment-related AE): 378 (88) no. (%) | Any event resulting in death (treatment-related AE): 2 (0.5) no. (%) | Any serious event (treatment-related AE): 24 (6) no. (%) | Grade ≥3 (treatment-related AE): 59 (14) no. (%) | Decreased appetite (treatment-related AE, All): 40 (9) no. (%) | Dermatitis acneiform (treatment-related AE, All): 54 (13) no. (%) | Diarrhea (treatment-related AE, All): 149 (35) no. (%) | Dry skin (treatment-related AE, All): 54 (13) no. (%) | Hypoalbuminemia (treatment-related AE, All): 11 (3) no. (%) | Increased alanine aminotransferase (treatment-related AE, All): 38 (9) no. (%) | Increased aspartate aminotransferase (treatment-related AE, All): 34 (8) no. (%) | Infusion-related reaction (treatment-related AE, All): 0 no. (%) | Nausea (treatment-related AE, All): 32 (7) no. (%) | Paronychia (treatment-related AE, All): 115 (27) no. (%) | Peripheral edema (treatment-related AE, All): 10 (2) no. (%) | Pruritus (treatment-related AE, All): 63 (15) no. (%) | Rash (treatment-related AE, All): 121 (28) no. (%) | Stomatitis (treatment-related AE, All): 77 (18) no. (%) | Thrombocytopenia (treatment-related AE, All): 75 (18) no. (%) | Decreased appetite (treatment-related AE, Grade ≥3): 1 (0.2) no. (%) | Dermatitis acneiform (treatment-related AE, Grade ≥3): 0 no. (%) | Diarrhea (treatment-related AE, Grade ≥3): 2 (0.5) no. (%) | Dry skin (treatment-related AE, Grade ≥3): 1 (0.2) no. (%) | Hypoalbuminemia (treatment-related AE, Grade ≥3): 0 no. (%) | Increased alanine aminotransferase (treatment-related AE, Grade ≥3): 4 (1) no. (%) | Increased aspartate aminotransferase (treatment-related AE, Grade ≥3): 1 (0.2) no. (%) | Infusion-related reaction (treatment-related AE, Grade ≥3): 0 no. (%) | Nausea (treatment-related AE, Grade ≥3): 1 (0.2) no. (%) | Paronychia (treatment-related AE, Grade ≥3): 2 (0.5) no. (%) | Peripheral edema (treatment-related AE, Grade ≥3): 0 no. (%) | Pruritus (treatment-related AE, Grade ≥3): 1 (0.2) no. (%) | Rash (treatment-related AE, Grade ≥3): 3 (1) no. (%) | Stomatitis (treatment-related AE, Grade ≥3): 1 (0.2) no. (%) | Thrombocytopenia (treatment-related AE, Grade ≥3): 3 (1) no. (%)
